Values of other authors in paper PMC7395068, “The evolution of strategies to minimise the risk of human drug-induced liver injury (DILI) in drug discovery and development” (Archives of Toxicology, 2020).
Like-named read-outs stand apart in the source and are kept apart here.

Legend:
[1] = cited from earlier work
[2] = tested on: primary human hepatocytes, NIH3T3 fibroblasts, BSEP, CYP3A4; settings: In vitro Assay; ref Schadt 2015; cited from earlier work
rBsep = settings: In vitro Assay; ref Dawson 2012; cited from earlier work
[3] = tested on: THLE-Null and THLE-3A4 cells; settings: In vitro Assay; ref Gustafsson 2014; cited from earlier work
[4] = cited from earlier work; remark: listed apart in the source
human hepatocytes = settings: cited from earlier work
[5] = tested on: isolated mouse liver mitochondria; settings: In vitro Assay; ref Porceddu 2012; cited from earlier work
[6] = cited from earlier work; remark: listed apart in the source
PHH spheroids = settings: In vitro Assay; ref Vorrink 2018; cited from earlier work
[7] = tested on: THLE or HepG2 cells, isolated mitochondria, BSEP; settings: cited from earlier work
HepG2 cells [8] = settings: In vitro Assay; ref Persson 2013; cited from earlier work
HepG2 cells [9] = settings: In vitro Assay; ref O'Brien 2006; cited from earlier work

Compound | DILI +VE (5-8), DILI -VE (-4) ([1]; in vivo) | DILI severity category ([1]; in vivo) | DILI Score (FDA) (1-8) ([4]; in vivo) | Structural based (HCI) (human hepatocytes; In vitro Assay, ref Xu 2008) | in vitro data EC2<=1x Cmax [5] | hLiMTs ATP <20 x Cmax (PHH spheroids) | DILI +VE (5-8), DILI -VE (-4) ([1]; ref Chen 2016) | DILI severity category ([1]; ref Chen 2016) | In vivo DILI ([6]; ref Aleo 2019) | Partition Hybrid HRM Score ([7]; In vitro Assay, ref Aleo 2019) | Ro2 Hybrid HRM Score ([7]; In vitro Assay, ref Aleo 2019) | DILI Score (FDA) (1-8) ([4]; ref Chen 2011) | further results
Nc1nc2c(ncn2COCCO)c(=O)[nH]1 [acyclovir] | +VE | vLess-DILI-Concern | 5 |  |  |  |  |  |  |  |  |  | Cellular toxicity (3T3 cells) [2]: -VE; Combined Assay [2]: -VE; GSH adduct HML [2]: -VE; Hepatocyte cellular toxicity [2]: -VE; MitoTox 3T3 [2]: -VE; TDI CYP3A4 [2]: -VE; hBSEP inhibition [2]: -VE; Inhibition of rBsep cutoff<1& cmax u>.2 (rBsep): -VE; Inhibition of rBsep cutoff<3 (rBsep): -VE; THLE-Null [3]: -VE
NC12CC3CC(CC(C3)C1)C2 [amantadine] | -VE | Ambiguous DILI-concern | 3 | -VE | -VE | -VE |  |  |  |  |  |  | In vivo DILI ([6]; in vivo): -VE
CC1(C)S[C@@H]2[C@H](NC(=O)[C@H](N)c3ccc(O)cc3)C(=O)N2[C@H]1C(=O)O [amoxicillin] |  |  |  |  | +VE |  | +VE | vLess-DILI-Concern | +VE | -VE | -VE | 3 | Inhibition of rBsep cutoff<1& cmax u>.2 (rBsep): -VE; Inhibition of rBsep cutoff<3 (rBsep): -VE; in vitro data EC20<=2uM [5]: +VE; In vivo DILI ([6]; […]): -VE; In vivo DILI ([6]; ref Dawson 2012): -VE; In vivo DILI ([6]; ref Garside 2014): +VE; In vivo DILI ([6]; ref Gustafsson 2014): +VE; In vivo DILI ([6]; ref Porceddu 2012): +VE; In vivo DILI ([6]; ref Schadt 2015): -VE; THLE-Null [3]: -VE
CS(=O)(=O)OCCCCOS(C)(=O)=O [busulfan] |  |  |  |  | +VE |  | +VE | vMost-DILI-Concern |  |  |  | 8 | in vitro data EC20<=2uM [5]: -VE; In vivo DILI ([6]; […]): +VE; In vivo DILI ([6]; ref Porceddu 2012): +VE
CC(C(=O)O)c1cccc(Oc2ccccc2)c1 (stereo not drawn) [fenoprofen] |  |  |  |  |  |  | +VE | vMost-DILI-Concern | +VE | +VE | +VE | 8 | 
OC(Cn1cncn1)(Cn1cncn1)c1ccc(F)cc1F [fluconazole] |  |  |  | -VE | +VE | -VE | +VE | vMost-DILI-Concern | +VE |  | -VE | 8 | in vitro data EC20<=2uM [5]: -VE; In vivo DILI ([6]; […]): +VE; In vivo DILI ([6]; ref Porceddu 2012): +VE; In vivo DILI ([6]; ref Vorrink 2018): +VE; In vivo DILI ([6]; ref Xu 2008): +VE
O=C(c1ccccc1)c1ccc2n1CCC2C(=O)O (stereo not drawn) [ketorolac] |  |  |  | -VE |  | +VE (IC20 < 20 × Cmax.tot cut-off) | +VE | vLess-DILI-Concern | +VE | -VE | -VE | 3 | Cluser analysis (HepG2 cells [8]): -VE; Structural based (HCI) (HepG2 cells [8]): -VE; In vivo DILI ([6]; ref O'Brien 2006): +VE; In vivo DILI ([6]; ref Persson 2013): +VE; In vivo DILI ([6]; ref Vorrink 2018): +VE; In vivo DILI ([6]; ref Xu 2008): +VE; Structural based (HCI) (HepG2 cells [9]): -VE
Sc1ncnc2nc[nH]c12 [mercaptopurine] |  |  |  | -VE | -VE | +VE (IC20 < 20 × Cmax.tot cut-off) | +VE | vMost-DILI-Concern | +VE | +VE | +VE | 8 | Cluser analysis (HepG2 cells [8]): +VE; Structural based (HCI) (HepG2 cells [8]): +VE; in vitro data EC20<=2uM [5]: +VE; In vivo DILI ([6]; […]): +VE; In vivo DILI ([6]; ref O'Brien 2006): +VE; In vivo DILI ([6]; ref Persson 2013): +VE; In vivo DILI ([6]; ref Porceddu 2012): +VE; In vivo DILI ([6]; ref Vorrink 2018): +VE; In vivo DILI ([6]; ref Xu 2008): +VE; Structural based (HCI) (HepG2 cells [9]): +VE
Cc1cccc(C)c1OCC(C)N (stereo not drawn) [mexiletine] | +VE | vMost-DILI-Concern | 3 |  |  | +VE (IC20 < 20 × Cmax.tot cut-off) |  |  |  |  |  |  | Structural based (HCI) (human hepatocytes): +VE; In vivo DILI ([6]; in vivo): +VE
CN(C)c1ccc(O)c2c1C[C@H]1C[C@H]3[C@H](N(C)C)C(O)=C(C(N)=O)C(=O)[C@@]3(O)C(O)=C1C2=O [minocycline] | +VE | vMost-DILI-Concern | 2 |  |  |  |  |  |  |  |  |  | Cluser analysis (HepG2 cells [8]): -VE; Structural based (HCI) (HepG2 cells [8]): -VE; In vivo DILI ([6]; in vivo): +VE; Ro2 Hybrid HRM Score [7]: +VE; Structural based (HCI) (HepG2 cells [9]): +VE
O=C1CC[C@@]2(O)[C@H]3Cc4ccc(O)c5c4[C@@]2(CCN3CC2CC2)[C@H]1O5 [naltrexone] | -VE | Ambiguous DILI-concern | 3 | -VE |  |  |  |  |  |  |  |  | In vivo DILI ([6]; in vivo): +VE; THLE-Null [3]: -VE; THLE-Null/3A4 [3]: -VE
CNC(=C[N+](=O)[O-])NCCSCc1csc(CN(C)C)n1 [nizatidine] |  |  |  |  |  |  | +VE | vLess-DILI-Concern | +VE | -VE | -VE | 5 | In vivo DILI ([6]; ref O'Brien 2006): +VE; Structural based (HCI) (HepG2 cells [9]): +VE (lowest HCI endpoint IC50 (or in the absence of dose–response < 100 µM) < 30 × total human plasma exposure levels (Cmax.tot))
CCCCCCCCCCC[C@@H](C[C@@H]1OC(=O)[C@H]1CCCCCC)OC(=O)[C@H](CC(C)C)NC=O [orlistat] |  |  |  |  |  |  | +VE | vMost-DILI-Concern | +VE | +VE | +VE | 8 | 
C=CC[C@@H]1/C=C(\C)C[C@H](C)C[C@H](OC)[C@H]2O[C@@](O)(C(=O)C(=O)N3CCCC[C@H]3C(=O)O[C@H](/C(C)=C/[C@@H]3CC[C@@H](O)[C@H](OC)C3)[C@H](C)[C@@H](O)CC1=O)[C@H](C)C[C@@H]2OC [tacrolimus] |  |  |  |  |  |  | +VE | vLess-DILI-Concern | +VE | -VE | -VE | 5 | 
CCC[C@@]1(CCc2ccccc2)CC(O)=C([C@H](CC)c2cccc(NS(=O)(=O)c3ccc(C(F)(F)F)cn3)c2)C(=O)O1 [tipranavir] |  |  |  |  |  |  | +VE | vMost-DILI-Concern | +VE | +VE | +VE | 8 | 
carboplatin |  |  |  |  |  |  | +VE | vLess-DILI-Concern | +VE | -VE | -VE | 3 | 
